Consider one compound from ChEMBL document CHEMBL5727551, “5-(n-[6,5]-fused bicyclic aryl tetrahydroisoquinolin-6-yl) pyridin-3-yl acetic acid derivatives as inhibitors of human immunodeficiency virus replication” (2020).

The EC50 is the concentration at which the effect is half-maximal.

The test in a line: Inhibition of HIV Replication: A recombinant NL-RLuc proviral clone was constructed in which a section of the nef gene from NL4-3 was replaced with the Renilla Luciferase gene. This virus is fully infectious and can undergo multiple cycles of replication in cell culture. In addition, the luciferous reporter provides a simple and easy method for quantitating the extent of virus growth and consequently, the antiviral activity of test compounds. The plasmid pNLRLuc contains the proviral NL-Rluc DNA cloned into pUC 18 at the PvuII site. The NL-RLuc virus was prepared by transfection of 293T cells with the plasmid pNLRLuc. Transfections were performed using the LipofectAMINE PLUS kit from Invitrogen (Carlsbad, Calif.) according to the manufacturer and the virus generated was titered in MT-2 cells. For susceptibility analyses, the titrated virus was used to infect MT-2 cells in the presence of compound, and after 5 days of incubation, cells were processed and quantitated for virus growth by the amount of expressed luciferase. Assay media was RPMI 1640 supplemented with 10% heat inactivated fetal bovine serum (FBS), 100 units/ml penicillin G/100 units/ml streptomycin, 10 mM HEPES buffer pH 7.55 and 2 mM L-glutamine. The results from at least 2 experiments were used to calculate the EC50 values. Luciferase was quantitated using the Dual Luciferase kit from Promega (Madison, Wis.). […]. Type of test: cell-based.

Structures are written as SMILES.

In the case of `Cc1nc(C)c([C@H](OC(C)(C)C)C(=O)O)c(N2CCC(C)(C)CC2)c1-c1ccc2c(c1)CCN(c1ncnc3cc[nH]c13)C2`, the EC50 is 20 nM.
